Measurements from patent US20220144775A1, “HYDRAZIDE COMPOUND AND KINASE INHIBITOR” (NISSAN CHEMICAL CORPORATION, priority 2019, published 2022).

Test system: YAP
Experiment: YAP phosphorylation inhibitory action in SKOV3 (HTRF)
Type: cell-based, human
Conditions: 10 μM, 1 hr, non-treatment 100%
Description: Human ovarian cancer cell line SKOV3 (manufactured by DS Pharma Biomedical Co., Ltd.) was precultured using a 15% FBS-containing McCoy's 5a medium (manufactured by Sigma-Aldrich) (single layer culture). The above-mentioned cells in the logarithmic growth phase were washed with PBS. A 0.25% (w/v) trypsin-1 mmol/L ethylenediaminetetraacetic acid (EDTA) solution (manufactured by FUJIFILM Wako Pure Chemical Corporation) was added and the adherent cells were incubated at 37° C. for 3 min and detached. The above-mentioned medium was added, and the cells were centrifuged and resuspended in the same medium.
According to the method of patent document 1 (WO 2014/017513), a composition of 10% FBS-containing DMEM medium (Phenol-red free, manufactured by FUJIFILM Wako Pure Chemical Corporation) containing 0.015% (w/v) deacylated gellan gum (KELCOGEL CG-LA, manufactured by SANSHO Co., Ltd.) was prepared using FCeM-series Preparation Kit (manufactured by FUJIFILM Wako Pure Chemical Corporation). Then, various cells prepared above were suspended in the above-mentioned medium composition (3D culture conditions) added with deacylated gellan gum or a medium without the addition (2D culture conditions), and seeded on a 50 μL/well (manufactured by Corning Incorporated, a 96 well flat bottom plate, #3585, 2D culture conditions) or 25 μL/well (manufactured by Corning Incorporated, 96 well low adhesion flat bottom plate, #3474) at 100000 cells/well. The plate was allowed to stand at 37° C. in a 5% CO2 incubator, and the compound of the present invention diluted with the medium at 2 or 6 times the final concentration, DMSO, or the medium alone was added to the plate 3 hr after the seeding at 50 μL/well (2D culture conditions) or 5 μL/well (3D culture conditions) to make the final concentration of each compound 10 μM. After culture at 37° C. in a 5% CO2 incubator for 1 hr, the supernatant was aspirated, supplemented Lysis buffer (1-fold concentration, manufactured by Cisbio, YAP-total kit or YAP phospho-S27 kit) (50 μL) was added under 2D culture conditions, and supplemented Lysys buffer (4-fold concentration) (10 μL) was added to the culture supernatant under 3D conditions, and the mixture was stirred by a plate shaker for 30 min. Thereafter, the plate was centrifuged, 16 μL of the supernatant was transferred to a 384-well white plate (Corning, #4512), and each antibody solution (pYAP d2 antibody or Total-YAP d2 antibody, and pYAP Cryptate antibody or Total-YAP Cryptate antibody) included in the kit was added at 4 μL/well in total, and the mixture was allowed to stand at room temperature overnight. As a blank control, pYAP Cryptate antibody or Total-YAP Cryptate antibody alone was added to cells free of stimulation with compound and the mixture was treated in the same manner. The next day, the wavelengths at 665 nm and 615′ nm were measured in the HTRF mode of EnVision (manufactured by PerkinElmer).
The obtained signal was calculated as follows. Ratio=signal (665 nm)/signal (615 nm)×10000, ΔR=Signal(Ratio)−Background fluorescence, and the relative phosphorylated YAP amount or total YAP amount for each compound when ΔR of the compound non-addition group (non-treatment) is 100% is shown in Tables 7 and 8 (2D culture), and Tables 9 and 10 (3D culture). From the results, it was shown that the compound of the present zo invention has a YAP phosphorylation inhibitory action under both 2D and 3D culture conditions.

SMILES: CC/C(=N\NC(=O)C(C)Nc1cccnc1)c1ccc(O)c(C)c1O (centres unmarked) [A-004, (E)-N′-(1-(2,4-dihydroxy-3-methylphenyl)propylidene)-2-(pyridin-3-ylamino)propanehydrazide]
- phosphorylated YAP amount (%) (2D culture conditions): 19%
- total YAP amount (%) (2D culture conditions): 87%
- phosphorylated YAP amount (%) (3D culture conditions): 33%
- total YAP amount (%) (3D culture conditions): 105%

SMILES: CC/C(=N\NC(=O)C(C)Nc1cncc(F)c1)c1ccc(O)c(C)c1O (centres unmarked) [A-007]
- phosphorylated YAP amount (%) (2D culture conditions): 16%
- total YAP amount (%) (2D culture conditions): 91%
- phosphorylated YAP amount (%) (3D culture conditions): 21%
- total YAP amount (%) (3D culture conditions): 96%
